“Also recorded” adds a separate entry of the source.

One series deals with CHO cells. The series is described as follows: Live cell confocal microscopy: cellular uptake and intracellular distribution of Tat conjugates in CHO cells. The format is cell-based, Chinese hamster. The note with it: 1 μM, 60 min, serum-free DMEM, post-wash. As to the method:
The cellular uptake and intracellular distribution of Tat-trimers and monomeric controls was investigated by performing live cell confocal microscopy of HeLa (human, cervical cancer) and CHO (Chinese hamster, epithelial) cells incubated with Tat conjugates (1 μM) in serum-free DMEM (60 min). Following washing, images were acquired using a Zeiss 780 confocal microscope fitted with an incubation chamber (FIG. 2). In accordance with observations that free Tat in the cytosol readily enters the nucleus and strongly binds to nucleoli,^29 homogenous staining of cytoplasm and nucleoli were considered as indicative of cells having accumulated free conjugate, not confined to endosomes, for quantification purposes. […] The uptake and intracellular distribution of tri-Tat A is similar in live Hela and CHO cells (FIG. 2b,d,e).
HeLa and CHO cells were cultured in DMEM supplemented with 10% FBS and penicillin/streptomycin. For post-wash experiments, Tat conjugate was added to the cells in serum free medium, cells incubated at 37° C. in an atmosphere of 5% CO2, culture medium removed at the desired time point, cells washed and transferred to the microscope for imaging. For time course or pre-wash experiments, cells were transferred to the microscope (incubation chamber at 37° C., 5% CO2) and Tat conjugate added directly to cell medium and cells imaged at desired time points. Co-delivery experiments were conducted by adding peptide trimer immediately followed by cargo into serum free medium. Samples were visualised using a Zeiss LSM 780 inverted confocal microscope fitted with a XLmultiS1 incubation chamber and Plan-Apochromat 63×/1.40 Oil DIC M27 objective. Images were analysed using ImageJ software. Digital adjustments and image processing are consistent throughout the manuscript, unless otherwise stated in the figure legend. Statistical analysis was carried out using GraphPad Prism 7 software and all data used for statistical analysis consists of measurements from distinct cells. Where applicable a parametric, unpaired, two-tailed t-test was used for statistical testing.

In the next series the test system is HeLa cells. The series is described as follows: Membrane integrity / porosity: propidium iodide uptake after trimer treatment. The format is cell-based, human. As to conditions: 1 μM trimer; 40 μM PI added 20 min after trimer. On the procedure:
To assess membrane integrity, 40 μM propidium iodide (PI; a cell impermeable dye), was added to Hela cells 20 min after the addition of the peptide trimer.

Series [1] is described as follows: MTT assay of metabolic activity (cell viability). It counts as cell-based. As to conditions: human, HeLa cells, 1 μM for 60 min. As to the method:
Toxicity is a concern with potent intracellular delivery agents. We used an MTT assay to measure the metabolic activity of Hela cells treated with 1 μM tri-Tat A or tri-cTat B for 60 min (FIG. 4d). […] Tri-Tat A is slightly more toxic, which is consistent with the observation that the trimer forms membrane pores (cells 84.4% viable, 4 h post-treatment; 80.2% viable, 3 days post-treatment). The favourable uptake mechanism and low toxicity of tri-cTat B lead us to investigate this agent for its potential to transport biomacromolecular cargos into cells.

As for `N=C(N)NCCC[C@@H]1NC(=O)[C@H](CCCNC(=N)N)NC(=O)[C@H](CCCNC(=N)N)NC(=O)[C@H](CCC(N)=O)NC(=O)[C@H](CCCNC(=N)N)NC(=O)[C@H](CCCNC(=N)N)NC(=O)[C@H](CCCCN)NC(=O)[C@H](CCCCN)NC(=O)[C@H](CCCNC(=N)N)NC(=O)[C@H](CCCCn2cc(COCC(COCc3cn(CCCCCCNC(=O)c4ccc5c(c4)C(=O)OC54c5ccc(N)c(S(=O)(=O)O)c5Oc5c4ccc(N)c5S(=O)(=O)O)nn3)(COCc3cn(CCCC[C@@H]4NC(=O)CC[C@@H](C(N)=O)NC(=O)[C@H](CCCNC(=N)N)NC(=O)[C@H](CCCNC(=N)N)NC(=O)[C@H](CCCNC(=N)N)NC(=O)[C@H](CCC(N)=O)NC(=O)[C@H](CCCNC(=N)N)NC(=O)[C@H](CCCNC(=N)N)NC(=O)[C@H](CCCCN)NC(=O)[C@H](CCCCN)NC(=O)[C@H](CCCNC(=N)N)NC4=O)nn3)COCc3cn(CCCC[C@@H]4NC(=O)CC[C@@H](C(N)=O)NC(=O)[C@H](CCCNC(=N)N)NC(=O)[C@H](CCCNC(=N)N)NC(=O)[C@H](CCCNC(=N)N)NC(=O)[C@H](CCC(N)=O)NC(=O)[C@H](CCCNC(=N)N)NC(=O)[C@H](CCCNC(=N)N)NC(=O)[C@H](CCCCN)NC(=O)[C@H](CCCCN)NC(=O)[C@H](CCCNC(=N)N)NC4=O)nn3)nn2)NC(=O)CC[C@@H](C(N)=O)NC1=O` (stereo partly shown) [tri-cTat B], the “cellular uptake and intracellular distribution” value in the series with CHO cells was “taken up into the cytosol and nucleoli”. In the series with HeLa cells, the “propidium iodide (PI) uptake / pore formation” value is “does not form pores in the plasma membrane; also recorded: PI negative”. In series [1] (4 h post-treatment), the viability (in general, a read-out of living cells in per cent, often relative to untreated cells) at 4 h, 1 µM came to 94.3%. The viability at 72 h, 1 µM in series [1] (3 days post-treatment) was determined as 96.5%.

(Values after patent US20250295795A1, “PEPTIDE” (priority 2021, published 2025).)
